According to PubChem BioAssay (NCI):
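All cell lines were grown in 96-well plates and treated with compound for 48 hours. GI50: concentration for 50% inhibition of growth. TGI: total growth inhibition.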

Experiments:
Experiment in all cases: DTP human tumour cell line panel, 48 h
CAKI-1 renal = tested on: CAKI-1 renal
COLO 205 colon = tested on: COLO 205 colon
HCT-116 colon = tested on: HCT-116 colon
HCT-15 colon = tested on: HCT-15 colon
IGROV1 ovarian = tested on: IGROV1 ovarian
NCI-H460 lung = tested on: NCI-H460 lung
RPMI-8226 leukemia = tested on: RPMI-8226 leukemia
SF-295 CNS = tested on: SF-295 CNS
SK-MEL-5 melanoma = tested on: SK-MEL-5 melanoma
TK-10 renal = tested on: TK-10 renal

CCNCCNc1cc(-c2ccc(C#N)cc2)c(C#N)c2nc3ccccc3n12 was tested, and the GI50 (CAKI-1 renal) was 3.5 µM, the TGI (CAKI-1 renal) was 13.5 µM and the GI50 (COLO 205 colon) was 1.88 µM. It also gave a TGI (COLO 205 colon) of 4.16 µM, a GI50 (HCT-116 colon) of 1.5 µM and a TGI (HCT-116 colon) of 2.94 µM. The GI50 (HCT-15 colon) was 2.81 µM, the TGI (HCT-15 colon) was 11 µM and the GI50 (IGROV1 ovarian) was 4.53 µM. It also gave a TGI (IGROV1 ovarian) of 18 µM, a GI50 (NCI-H460 lung) of 2.47 µM and a TGI (NCI-H460 lung) of 5.66 µM. The GI50 (RPMI-8226 leukemia) was 4.78 µM, the TGI (RPMI-8226 leukemia) was 19.5 µM and the GI50 (SF-295 CNS) was 1.79 µM. The TGI (SF-295 CNS) was 3.6 µM, the GI50 (SK-MEL-5 melanoma) was 2.28 µM and the TGI (SK-MEL-5 melanoma) was 5.67 µM. It also gave a GI50 (TK-10 renal) of 2.03 µM and a TGI (TK-10 renal) of 5.74 µM.

For Cc1cc2c(cc1Cl)S/C(=C/C(=O)O)C(Nc1cccc3nsnc13)=NS2(=O)=O, the GI50 (CAKI-1 renal) was 56 µM, the TGI (CAKI-1 renal) was greater than 76.6 µM and the GI50 (COLO 205 colon) was greater than 48.3 µM. The TGI (COLO 205 colon) was greater than 61.5 µM, the GI50 (HCT-116 colon) was 33.5 µM and the TGI (HCT-116 colon) was greater than 59.2 µM. The GI50 (HCT-15 colon) was greater than 54.7 µM, the TGI (HCT-15 colon) was greater than 68.8 µM and the GI50 (IGROV1 ovarian) was greater than 49.9 µM. The TGI (IGROV1 ovarian) was greater than 78.3 µM, the GI50 (NCI-H460 lung) was greater than 39.8 µM and the TGI (NCI-H460 lung) was greater than 65.1 µM. It also gave a GI50 (RPMI-8226 leukemia) of 10.7 µM, a TGI (RPMI-8226 leukemia) of 40.6 µM and a GI50 (SF-295 CNS) greater than 56.9 µM. The TGI (SF-295 CNS) was greater than 71.5 µM, the GI50 (SK-MEL-5 melanoma) was 33.4 µM and the TGI (SK-MEL-5 melanoma) was greater than 58.5 µM. It also gave a GI50 (TK-10 renal) greater than 58 µM and a TGI (TK-10 renal) greater than 72.5 µM.

Cc1ccc(C)c(N2C(=O)C(=O)C(c3nc4ccccc4s3)C(=Nc3cccc4c(=O)[nH][nH]c(=O)c34)C2=O)c1 (stereo not given) gave a TGI (CAKI-1 renal) greater than 100 µM, a TGI (COLO 205 colon) greater than 100 µM and a TGI (HCT-116 colon) greater than 100 µM. For the same compound, the TGI (HCT-15 colon) was greater than 100 µM, the TGI (IGROV1 ovarian) was greater than 100 µM and the TGI (NCI-H460 lung) was greater than 100 µM. The TGI (RPMI-8226 leukemia) was greater than 100 µM, the TGI (SF-295 CNS) was greater than 100 µM and the TGI (SK-MEL-5 melanoma) was greater than 100 µM. It also gave a TGI (TK-10 renal) greater than 100 µM.

For COc1ccc(Nc2nccc(N3CCN(c4c5ccc(Cl)cc5nc5ccc(OC)cc45)CC3)n2)cc1, the GI50 (CAKI-1 renal) was 8.93 µM, the TGI (CAKI-1 renal) was greater than 100 µM and the GI50 (COLO 205 colon) was 16.9 µM. The TGI (COLO 205 colon) was greater than 100 µM, the GI50 (HCT-116 colon) was 3.87 µM and the TGI (HCT-116 colon) was greater than 100 µM. The GI50 (HCT-15 colon) was 4.48 µM, the TGI (HCT-15 colon) was greater than 100 µM and the GI50 (IGROV1 ovarian) was 42.4 µM. The TGI (IGROV1 ovarian) was greater than 100 µM, the GI50 (NCI-H460 lung) was 8.13 µM and the TGI (NCI-H460 lung) was greater than 100 µM. For the same compound, the GI50 (RPMI-8226 leukemia) was 3.73 µM, the TGI (RPMI-8226 leukemia) was 28.1 µM and the GI50 (SF-295 CNS) was 10.7 µM. The TGI (SF-295 CNS) was 42.3 µM, the GI50 (SK-MEL-5 melanoma) was 16.1 µM and the TGI (SK-MEL-5 melanoma) was greater than 100 µM. For the same compound, the GI50 (TK-10 renal) was 11.5 µM and the TGI (TK-10 renal) was greater than 100 µM.

COc1cc2nc(-c3ccc(C(F)(F)F)cc3)cc(OCCCN3CCCC3)c2cc1OC gave a GI50 (CAKI-1 renal) of 0.245 µM, a TGI (CAKI-1 renal) of 14 µM and a GI50 (COLO 205 colon) of 0.398 µM. It also gave a TGI (COLO 205 colon) of 4.54 µM, a GI50 (HCT-116 colon) of 0.333 µM and a TGI (HCT-116 colon) of 4.29 µM. It also gave a GI50 (HCT-15 colon) of 0.429 µM, a TGI (HCT-15 colon) of 6.99 µM and a GI50 (IGROV1 ovarian) of 0.593 µM. For the same compound, the TGI (IGROV1 ovarian) was 14.5 µM, the GI50 (NCI-H460 lung) was 0.597 µM and the TGI (NCI-H460 lung) was 19.6 µM. The GI50 (RPMI-8226 leukemia) was 0.0786 µM, the TGI (RPMI-8226 leukemia) was 1.6 µM and the GI50 (SF-295 CNS) was 0.393 µM. It also gave a TGI (SF-295 CNS) of 1.64 µM, a GI50 (SK-MEL-5 melanoma) of 0.51 µM and a TGI (SK-MEL-5 melanoma) of 1.28 µM. For the same compound, the GI50 (TK-10 renal) was 7.51 µM and the TGI (TK-10 renal) was greater than 34.5 µM.

For O=C1/C(=C/c2ccc([N+](=O)[O-])cc2)COc2ccc(O)cc21, the GI50 (CAKI-1 renal) was 3.7 µM, the TGI (CAKI-1 renal) was 19.3 µM and the GI50 (COLO 205 colon) was 10.7 µM. It also gave a TGI (COLO 205 colon) of 55.7 µM, a GI50 (HCT-116 colon) of 1.67 µM and a TGI (HCT-116 colon) of 3.43 µM. For the same compound, the GI50 (HCT-15 colon) was 2.24 µM, the TGI (HCT-15 colon) was 7.61 µM and the GI50 (IGROV1 ovarian) was 2 µM. The TGI (IGROV1 ovarian) was 4.99 µM, the GI50 (NCI-H460 lung) was 9.03 µM and the TGI (NCI-H460 lung) was greater than 100 µM. For the same compound, the GI50 (RPMI-8226 leukemia) was 0.326 µM, the TGI (RPMI-8226 leukemia) was 1.65 µM and the GI50 (SF-295 CNS) was greater than 100 µM. It also gave a TGI (SF-295 CNS) greater than 100 µM, a GI50 (SK-MEL-5 melanoma) of 12.1 µM and a TGI (SK-MEL-5 melanoma) of 53.6 µM. It also gave a GI50 (TK-10 renal) of 26.2 µM and a TGI (TK-10 renal) greater than 100 µM.
